From patent US7521527B2 (Societe de Conseils de Recherches et d'Applications …, priority 2003, dated 2009)
Converted amounts (≈) assume the structure as drawn. Where a SMILES comes first, the peptide text is derived from it. [ ]: non-standard residue; d: D form. Aib = CC(C)(N)C(=O)O

Assays:
[1] = Aqueous solubility of compound vs zinc concentration; type: physicochemical; settings: aqueous saline, pH 7.0, room temperature
Experimental: Compounds that may advantageously be used to practice the invention can be and were tested to determine their solubility in pH 7 water at different zinc concentrations using the following procedure.
A stock zinc solution was prepared by dissolving ZnCl2 in de-ionized water to a concentration of 100 mg/ml and adjusting the pH to 2.7 using HCl. Solutions having various ZnCl2 concentrations (“Zn Test Solutions”) were prepared by making appropriate dilutions of the stock solution.
1 mg of the compound of Example 1 was dissolved in 250 μl of each Zn Test Solution to yield a solution having 4 mg/ml of the Example 1 compound. […] The precipitation solution was centrifuged and the mother liquor analyzed using HPLC. The UV absorption area of test compound peak was measured and the concentration of the test compound in the mother liquor was determined via comparison to a calibration curve.
As a representative example of a compound that may be used to practice the invention, the compound of Example 1 was tested in the immediately foregoing assay and the following results were obtained (aqueous saline, pH 7.0, room temperature): […]

[2] = tested on: adult male Sprague-Dawley rats; experiment: In vivo assay G.1/G.2: insulin secretion after iv glucose challenge following sc injection; set-up: species or system rat; settings: clear solution pH 4.0 with zinc (Preparation D), sc 75 μg/kg, fasted rats, iv glucose 1 g/kg at 0.25-24 h
Experimental: The day prior to the experiment, adult male Sprague-Dawley rats (Taconic, Germantown, N.Y.) that weighed approximately 300-350g were implanted with a right atrial jugular cannula under chlorohydrate anesthetic. The rats were then fasted for 18 hours prior to the injection of the appropriate test composition or vehicle control at time 0. The rats continued to be fasted throughout the entire experiment.
At time zero the rats were injected subcutaneously (sc) either with (a) the compound of Example 1 (Aib^8,^35, Arg^26,^34, Phe^31)hGLP-1(7-36)NH2) at pH 4.0 as a clear solution (i.e., the solution of Preparation D.), or (b) the compound of Example 1 at pH 7.0 as a suspension or gel (i.e., the suspension or gel of Preparation E.). […] At the appropriate time after the sc injections a 500 μl blood sample was withdrawn via the intravenous (iv) cannula and the rats were given an iv glucose challenge to test for the presence of enhanced insulin secretion. The times of the glucose challenge were 0.25, 1, 6, 12 and 24 hours post-compound injection. After the initial blood sample was withdrawn glucose (1 g/kg) was injected iv and flushed in with 500 μl heparinized saline (10U/mL). […] The amount of insulin in each sample was determined using a rat insulin enzyme-linked immunosorbant assay (ELISA) kit (American Laboratory Products Co., Windham, N.H.). […]

Row | Molecule | solubility ([1]; pH 7, ZnCl2 concentration 0 μg/mL) | solubility ([1]; pH 7, ZnCl2 concentration 80 μg/mL) | solubility ([1]; pH 7, ZnCl2 concentration 500 μg/mL) | solubility ([1]; pH 7, ZnCl2 concentration 1000 μg/mL) | solubility ([1]; pH 7, ZnCl2 concentration 1500 μg/mL) | solubility ([1]; pH 7, ZnCl2 concentration 2500 μg/mL) | duration of sustained insulin-enhancing activity inducible by glucose injection [2]
1 | CC[C@H](C)[C@H](NC(=O)[C@H](Cc1ccccc1)NC(=O)[C@H](CCC(=O)O)NC(=O)[C@H](CCCNC(=N)N)NC(=O)[C@H](C)NC(=O)[C@H](C)NC(=O)[C@H](CCC(N)=O)NC(=O)CNC(=O)[C@H](CCC(=O)O)NC(=O)[C@H](CC(C)C)NC(=O)[C@H](Cc1ccc(O)cc1)NC(=O)[C@H](CO)NC(=O)[C@H](CO)NC(=O)[C@@H](NC(=O)[C@H](CC(=O)O)NC(=O)[C@H](CO)NC(=O)[C@@H](NC(=O)[C@H](Cc1ccccc1)NC(=O)[C@@H](NC(=O)CNC(=O)[C@H](CCC(=O)O)NC(=O)C(C)(C)NC(=O)[C@@H](N)Cc1c[nH]cn1)[C@@H](C)O)[C@@H](C)O)C(C)C)C(=O)N[C@@H](C)C(=O)N[C@@H](Cc1ccccc1)C(=O)N[C@@H](CC(C)C)C(=O)N[C@H](C(=O)N[C@@H](CCCNC(=N)N)C(=O)NC(C)(C)C(=O)N[C@@H](CCCNC(=N)N)C(N)=O)C(C)C [Example 1, (Aib^8,^35, Arg^26,^34, Phe^31)hGLP-1(7-36)NH2] (H-H[Aib]EGTFTSDVSSYLEGQAAREFIAFLVR[Aib]R-NH2) | 53.9 µg/mL (≈ 16.1 µM) | 5.9 µg/mL (≈ 1.76 µM) | 5.6 µg/mL (≈ 1.67 µM) | 9.7 µg/mL (≈ 2.89 µM) | 9.7 µg/mL (≈ 2.89 µM) | 11 µg/mL (≈ 3.28 µM) | –
2 | (Aib^8,35)hGLP1(7-36)NH2 | – | – | – | – | – | – | 24 h
